Counter-ions that a name gives are not always drawn. Like-named read-outs stand apart in the source and are kept apart here. One block for each molecule: values may come before it.
Assays:
xanthine oxidase [1] = assay: Substrate specificity (formed hydrogen peroxide, Method II); format: biochemical, Enterobacter cloacae; conditions: for Relative activity: activity on xanthine defined as 100, 0.1 ml of 5 mM substrate, 0.25 U/ml enzyme, pH 7.3, 37° C.; for activity of xanthine oxidase on substrate (in words): conclusion from Table 1
Description: After completion of the reaction, the absorbancy of the reaction solution is measured at 500 nm. Molecular extinction coefficient of quinoneimine pigment formed in the reaction is 5.33×10^3 (Clinical Chemistry 20, 470, 1974). When a unit of enzyme activity is defined as the activity of enzyme which forms 1 μmol of hydrogen peroxide in one minute at 37° C. and at a pH of 7.3, the unit (U) of xanthine oxidase is as follows:
The same procedures as in Method II are repeated except that 0.25 U/ml xanthine oxidase and 0.1 ml of 5 mM solutions of various substrates are used, and the amount of the formed hydrogen peroxide is determined.

xanthine oxidase [2] = assay: Inhibition of xanthine oxidase (Method I); format: biochemical, Enterobacter cloacae; conditions: for inhibition of xanthine oxidase (in words): conclusion from Table 2
Description: The reaction is carried out at 37° C. for ten minutes. […] The thus obtained value is defined as OD283. This value corresponds to the amount of uric acid formed.
Since the reaction product, uric acid has a maximum absorption at 283 nm in acidic region and the molecular extinction coefficient is 1.238×10^4 (Analytical Biochemistry 38, 65, 1970), the unit (U) of xanthine oxidase is as follows:
One unit of enzyme activity is defined as the activity of enzyme which forms 1 μmol of uric acid in one minute at 37° C. and at a pH of 7.3.
Xanthine oxidase activity is determined in the same manner as in Method I except that 0.25 U/ml xanthine oxidase solution is used and various enzyme inhibitors are added.

xanthine oxidase [3] = assay: Experiment 3: electron acceptor of the present enzyme; format: biochemical, Enterobacter cloacae
Description: 0.15 ml of 10 mM xanthine aqueous solution, 1.0 ml of 100 mM tris-hydrochloride buffer (pH 7.3), 0.65 ml of water and 1 ml of various electron acceptors shown in Table 3 are mixed. The mixture and a solution of xanthine oxidase obtained in Example 1 are incubated at 37° C. and then nitrogen gas is introduced into the mixture and the enzyme solution for 3~4 minutes to remove dissolved oxygen.
Then, 0.2 ml of 0.25 U/ml xanthine oxidase is added to 2.8 ml of the reaction mixture to initiate the reaction and the absorbancy is measured every 15 seconds. The values obtained during one minutes of 30 to 90 seconds after the addition of xanthine oxidase is used as data.
When oxygen is used as an acceptor, nitrogen gas is not introduced into the mixture and the reaction product, uric acid obtained using dissolved oxygen is determined by measuring the absorbancy at 295 nm.

[4] = tested on: xanthine oxidase derived from milk; conditions: ferricyanide 100; cited from earlier work
xanthine oxidase [5] = assay: Examples 2 and 3: xanthine oxidase activity with nucleic acid compound added to the medium; format: cell-based, Enterobacter cloacae KY 3066
Description: In this example, 40 ml of the medium (pH 7.2) containing 0.5 g/dl yeast extract, 0.5 g/dl corn steep liquor, 0.1 g/dl peptone, 0.05 g/dl KH2 PO4, 0.1 g/dl K2 HPO4, […] and is sterilized at 120° C. for 15 minutes. One loopful of the seed culture of Enterobacter cloacae KY 3066 is inoculated into the medium and culturing is carried out at 30° C. for 48 hours.
The microbial cells are recovered from the culture liquor by centrifugation and are suspended in 20 ml of the buffer. The suspension is subjected to ultrasonic disintegration.

xanthine oxidase [6] = tested on: xanthine oxidase
Description: The coloring solution is prepared by adding 445 U/100 ml peroxidase to 0.1 M tris-hydrochloride buffer (pH 7.3) containing 10 mmol/l 4-aminoantipyrine and 10 mmol/l phenol.
In this experiment, 40 ml of medium (pH 7.2) comprising hypoxanthine having concentrations indicated in Table 4, 0.5 g/dl yeast extract, 0.5 g/dl corn steep liquor, 0.1 g/dl peptone, 0.05 g/dl KH2 PO4, 0.1 g/dl K2 HPO4 and 0.05 g/dl MgSO4.7H2 O is poured into Sakaguchi flask and is sterilized at 120° C. for 15 minutes.
One loopful of the seed culture of Enterobacter cloacae KY 3066, FERM P 4077, NRRL B-11155 in a slant is inoculated into the medium and culturing is carried out with shaking at 30° C. for 48 hours.
After completion of the culturing, the culture liquor is subjected to centrifugation at 10,000 r.p.m for 15 minutes (hereinafter centrifugation is carried out under this condition) to obtain microbial cells. The thus obtained cells are suspended in 20 ml of 50 mM tris-hydrochloride buffer (pH 8.0) and then disrupted for ten minutes in an ultrasonic disintegration (Ultrasonic Generator KMS-250 type, made by Kubota Seisaku-sho). The resulting disrupted cell suspension is centrifuged to obtain a supernatant. Xanthine oxidase activity of the supernatant is determined according to the Determination Method II and the results are shown in Table 4 below.

xanthine oxidase [7] = format: biochemical, Enterobacter cloacae
Description: As a coloring solution, 0.1 M tris-hydrochloride buffer (pH 7.3) containing 10 mmol/l 4-aminoantipyrine, 10 mmol/l phenol and 490 U/100 ml peroxidase is prepared. […] The absorbancy of the reaction solution is measured at 500 nm.

[8] = pH 7.3
Description: Hypoxanthine is oxidized by the action of the present enzyme and the formed hydrogen peroxide is reacted with a coloring reagent.
The enzyme-containing solution is subjected to reaction at 37° C. and the absorbancy of the reaction solution colored by the formation of quinoneimine derived from hydrogen peroxide is measured at 500 nm at regular intervals.
The solution is subjected to reaction at 37° C. and the absorbancy of the reaction solution is measured at 293 nm at regular intervals.

- Relative activity (xanthine oxidase [1]): 88.5%
- activity of xanthine oxidase on substrate (in words) (xanthine oxidase [1]): strong activity
Molecule: Oc1ncc2[nH]cnc2n1 [2-Hydroxypurine]

- Relative activity (xanthine oxidase [1]): 4.4%
Molecule: Sc1ncnc2nc[nH]c12 [6-mercaptopurine]

Molecule: Nc1ncnc2nc[nH]c12 [Adenine]
- Relative activity (xanthine oxidase [1]): 0%

Molecule: Nc1ncnc2c1ncn2[C@@H]1O[C@H](CO)[C@@H](O)[C@H]1O [Adenosine]
- Relative activity (xanthine oxidase [1]): 2.5%

Molecule: O=[N+]([O-])[O-].[Ag+] [AgNO3]
- inhibition of xanthine oxidase (in words) (xanthine oxidase [2]): inhibitors of xanthine oxidase
- Inhibition rate (xanthine oxidase [2]; inhibitor 1 × 10^-4 M): 97.8%
- Inhibition rate (xanthine oxidase [2]; inhibitor 1 × 10^-5 M): 98.2%
- Inhibition rate (xanthine oxidase [2]; inhibitor 1 × 10^-6 M): 54.8%
- Inhibition rate (xanthine oxidase [2]; inhibitor 1 × 10^-7 M): 0%

- inhibition of xanthine oxidase (in words) (xanthine oxidase [2]): inhibitors of xanthine oxidase
- Inhibition rate (xanthine oxidase [2]; inhibitor 1 × 10^-4 M): 96.3%
- Inhibition rate (xanthine oxidase [2]; inhibitor 1 × 10^-5 M): 79.6%
- Inhibition rate (xanthine oxidase [2]; inhibitor 1 × 10^-6 M): 12.9%
- Inhibition rate (xanthine oxidase [2]; inhibitor 1 × 10^-7 M): 0%
Molecule: O.O.[Cl][Cu][Cl] [CuCl2.2H2 O]

- inhibition of xanthine oxidase (in words) (xanthine oxidase [2]): inhibitors of xanthine oxidase
- Inhibition rate (xanthine oxidase [2]; inhibitor 1 × 10^-4 M): 90.5%
- Inhibition rate (xanthine oxidase [2]; inhibitor 1 × 10^-5 M): 53.5%
- Inhibition rate (xanthine oxidase [2]; inhibitor 1 × 10^-6 M): 2.2%
Molecule: [Cl][Cu] [CuCl]

Molecule: O=C1C(Cl)=CC(=Nc2ccc(O)cc2)C=C1Cl [DCPIP, 2,6-sodium salt of dichlorphenol indophenol]
- Relative activity (xanthine oxidase [3]; acceptor 0.04 mM, 600 nm): 9.2%
- Relative activity [4]: 35

Molecule: Nc1nc2c(ncn2[C@@H]2O[C@H](COP(=O)(O)O)[C@@H](O)[C@H]2O)c(=O)[nH]1 [Disodium 2,5'-guaninate]
- Xanthine oxidase (xanthine oxidase [5]; amount of addition 0.81 g/dl): 0.30 U/ml

- inhibition of xanthine oxidase (in words) (xanthine oxidase [2]): inhibitors of xanthine oxidase
- Inhibition rate (xanthine oxidase [2]; inhibitor 1 × 10^-4 M): 92.3%
- Inhibition rate (xanthine oxidase [2]; inhibitor 1 × 10^-5 M): 0%
Molecule: O.O.O.O.O.O.O.O=S(=O)([O-])[O-].[Fe+2] [FeSO4.7H2 O]

Molecule: Nc1nc2nc[nH]c2c(=O)[nH]1 [Guanine]
- Xanthine oxidase (xanthine oxidase [5]; amount of addition 0.3 g/dl): 0.14 U/ml
- Relative activity (xanthine oxidase [1]): 53.3%
- activity of xanthine oxidase on substrate (in words) (xanthine oxidase [1]): strong activity

- Relative activity (xanthine oxidase [1]): 0%
Molecule: Nc1nc2c(ncn2[C@@H]2O[C@H](CO)[C@@H](O)[C@H]2O)c(=O)[nH]1 [Guanosine]

Molecule: O=c1[nH]cnc2nc[nH]c12 [Hypoxanthine]
- Xanthine oxidase activity (xanthine oxidase [6]; hypoxanthine 0.1 g/dl): 20.0 U/dl
- Xanthine oxidase activity (xanthine oxidase [6]; hypoxanthine 0.2 g/dl): 31.2 U/dl
- Xanthine oxidase activity (xanthine oxidase [6]; hypoxanthine 0.3 g/dl): 47.3 U/dl
- Xanthine oxidase activity (xanthine oxidase [6]; hypoxanthine 0.5 g/dl): 48.4 U/dl
- Xanthine oxidase activity (xanthine oxidase [6]; hypoxanthine 1.0 g/dl): 55.2 U/dl
- Xanthine oxidase activity (xanthine oxidase [6]; hypoxanthine 3.0 g/dl): 49.0 U/dl
- Relative activity (xanthine oxidase [1]): 92.3%
- activity of xanthine oxidase on substrate (in words) (xanthine oxidase [1]): strong activity
- [B]/[A] (formed hydrogen peroxide / substrate) (xanthine oxidase [7]): 1.80
- Amount of formed hydrogen peroxide [B] (xanthine oxidase [7]; pH 7.3): 0.27 µmol

- Relative activity (xanthine oxidase [1]): 0%
Molecule: OC[C@H]1O[C@@H](n2cnc3c(O)ncnc32)[C@H](O)[C@@H]1O [Inosine]
- Xanthine oxidase (xanthine oxidase [5]; amount of addition 0.54 g/dl): 0.20 U/ml

- inhibition of xanthine oxidase (in words) (xanthine oxidase [2]): inhibitors of xanthine oxidase
- Inhibition rate (xanthine oxidase [2]; inhibitor 1 × 10^-3 M): 88.9%
- Inhibition rate (xanthine oxidase [2]; inhibitor 1 × 10^-4 M): 82.7%
- Inhibition rate (xanthine oxidase [2]; inhibitor 1 × 10^-5 M): 61.7%
- Inhibition rate (xanthine oxidase [2]; inhibitor 1 × 10^-6 M): 0%
Molecule: O=C1O[C@H]([C@@H](O)CO)C(O)=C1O [L-ascorbic acid]

- Relative activity (xanthine oxidase [1]): 0%
Molecule: NC(=O)C1=CN([C@@H]2O[C@H](COP(=O)(O)OP(=O)(O)OC[C@H]3O[C@@H](n4cnc5c(N)ncnc54)[C@H](O)[C@@H]3O)[C@@H](O)[C@H]2O)C=CC1 [NADH]

- Relative activity (xanthine oxidase [3]; acceptor 0.1 mM, 340 nm): 0%
Molecule: NC(=O)c1ccc[n+]([C@@H]2O[C@H](COP(=O)([O-])OP(=O)(O)OC[C@H]3O[C@@H](n4cnc5c(N)ncnc54)[C@H](OP(=O)(O)O)[C@@H]3O)[C@@H](O)[C@H]2O)c1 [NADP]

- Relative activity (xanthine oxidase [3]; acceptor 0.1 mM, 340 nm): 0%
Molecule: NC(=O)c1ccc[n+]([C@@H]2O[C@H](COP(=O)([O-])OP(=O)(O)OC[C@H]3O[C@@H](n4cnc5c(N)ncnc54)[C@H](O)[C@@H]3O)[C@@H](O)[C@H]2O)c1 [NAD]
- Relative activity [4]: < 1.3

- acceptor of the present enzyme (in words) (xanthine oxidase [3]): best acceptor
- Relative activity (xanthine oxidase [3]; dissolved oxygen, 295 nm): 100%
Molecule: O=O [Oxygen]
- Relative activity [4]: 83

Molecule: O=C([O-])c1cc[c]([Hg][Cl])cc1.[Na+] [PCMB, Sodium salt of pchloromercuribenzoic acid]
- inhibition of xanthine oxidase (in words) (xanthine oxidase [2]): inhibitors of xanthine oxidase
- Inhibition rate (xanthine oxidase [2]; inhibitor 1 × 10^-4 M): 76.6%
- Inhibition rate (xanthine oxidase [2]; inhibitor 1 × 10^-5 M): 34.7%
- Inhibition rate (xanthine oxidase [2]; inhibitor 1 × 10^-6 M): 0%

- Relative activity (xanthine oxidase [1]): 23.3%
- activity of xanthine oxidase on substrate (in words) (xanthine oxidase [1]): strong activity
Molecule: c1ncc2[nH]cnc2n1 [Purine]

- Relative activity (xanthine oxidase [1]): 0%
Molecule: Cn1cnc2c1c(=O)[nH]c(=O)n2C [Theobromine]

Molecule: Cn1c(=O)c2[nH]cnc2n(C)c1=O [Theophylline]
- Relative activity (xanthine oxidase [1]): 0%

- Relative activity (xanthine oxidase [1]): 0%
Molecule: O=c1[nH]c(=O)c2[nH]c(=O)[nH]c2[nH]1 [Uric acid]

Molecule: O=c1[nH]c(=O)c2[nH]cnc2[nH]1 [Xanthine]
- Xanthine oxidase (xanthine oxidase [5]; amount of addition 0.3 g/dl): 0.13 U/ml
- Relative activity (xanthine oxidase [1]): 100%
- activity of xanthine oxidase on substrate (in words) (xanthine oxidase [1]): strong activity
- Amount of formed hydrogen peroxide [B] (xanthine oxidase [7]; substrate 0.15 μmol, 0.93 U xanthine oxidase, pH 7.3, 37° C., 20 minutes): 0.14 µmol
- [B]/[A] (formed hydrogen peroxide / substrate) (xanthine oxidase [7]; substrate 0.15 μmol, 37° C., 20 minutes): 0.93

- Relative activity (xanthine oxidase [1]): 0%
Molecule: O=c1[nH]c(=O)c2ncn([C@@H]3O[C@H](CO)[C@@H](O)[C@H]3O)c2[nH]1 [Xanthosine]
- Xanthine oxidase (xanthine oxidase [5]; amount of addition 0.57 g/dl): 0.20 U/ml

Molecule: Cytochrome C: electron acceptor
- Relative activity (xanthine oxidase [3]; acceptor 0.1 mM, 550 nm): 0%

Molecule: xanthine oxidase derived from milk: xanthine oxidase derived from milk (product of Boehringer Mannheim Co.)
- stability of pigment (in words) [8]: then decrease in spite of the continuous formation of uric acid
